Test results published in PubChem BioAssay (NCI).
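1) Cells in 96-well plates. 2) Compound, 48 h, 5 concentrations. 3) Linear interpolation between surrounding doses. 4) Unreached endpoint = highest concentration. Abbreviation: GI50, concentration required for 50% inhibition of growth. TGI: concentration producing complete growth inhibition.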

What was measured:
Assay in all cases: growth of human tumour cells (NCI), 48 h; in the data active = GI50 below about 0.43 µM; inactive = the rest
786-0 renal = test system: 786-0 renal
A498 renal = test system: A498 renal
A549 NSCLC = test system: A549 NSCLC
ACHN renal = test system: ACHN renal
BT-549 breast = test system: BT-549 breast
CAKI-1 renal = test system: CAKI-1 renal
CCRF-CEM leukemia = test system: CCRF-CEM leukemia
COLO 205 colon = test system: COLO 205 colon
DU-145 prostate = test system: DU-145 prostate
EKVX NSCLC = test system: EKVX NSCLC
HCC-2998 colon = test system: HCC-2998 colon
HCT-116 colon = test system: HCT-116 colon
HCT-15 colon = test system: HCT-15 colon
HL-60(TB) leukemia = test system: HL-60(TB) leukemia
HOP-62 NSCLC = test system: HOP-62 NSCLC
HOP-92 NSCLC = test system: HOP-92 NSCLC
HS 578T breast = test system: HS 578T breast
HT29 colon = test system: HT29 colon
IGROV1 ovarian = test system: IGROV1 ovarian
K-562 leukemia = test system: K-562 leukemia
KM12 colon = test system: KM12 colon
LOX IMVI melanoma = test system: LOX IMVI melanoma
M14 melanoma = test system: M14 melanoma
MALME-3M melanoma = test system: MALME-3M melanoma
MCF7 breast = test system: MCF7 breast
MDA-MB-231 breast = test system: MDA-MB-231 breast
MDA-MB-435 = test system: MDA-MB-435
MDA-MB-468 breast = test system: MDA-MB-468 breast
MOLT-4 leukemia = test system: MOLT-4 leukemia
NCI-H226 lung = test system: NCI-H226 lung
NCI-H23 lung = test system: NCI-H23 lung
NCI-H460 lung = test system: NCI-H460 lung
NCI-H522 lung = test system: NCI-H522 lung
OVCAR-3 ovarian = test system: OVCAR-3 ovarian
OVCAR-4 ovarian = test system: OVCAR-4 ovarian
OVCAR-5 ovarian = test system: OVCAR-5 ovarian
OVCAR-8 ovarian = test system: OVCAR-8 ovarian
PC-3 prostate = test system: PC-3 prostate
RPMI-8226 leukemia = test system: RPMI-8226 leukemia
RXF 393 renal = test system: RXF 393 renal
SF-268 CNS = test system: SF-268 CNS
SF-295 CNS = test system: SF-295 CNS
SF-539 CNS = test system: SF-539 CNS
SK-MEL-2 melanoma = test system: SK-MEL-2 melanoma
SK-MEL-28 melanoma = test system: SK-MEL-28 melanoma
SK-MEL-5 melanoma = test system: SK-MEL-5 melanoma
SK-OV-3 ovarian = test system: SK-OV-3 ovarian
SN12C renal = test system: SN12C renal
SNB-19 CNS = test system: SNB-19 CNS
SNB-75 CNS = test system: SNB-75 CNS
SR leukemia = test system: SR leukemia
SW-620 colon = test system: SW-620 colon
T-47D breast = test system: T-47D breast
TK-10 renal = test system: TK-10 renal
U251 CNS = test system: U251 CNS
UACC-257 melanoma = test system: UACC-257 melanoma
UACC-62 melanoma = test system: UACC-62 melanoma
UO-31 renal = test system: UO-31 renal

CC1=C(C(=O)Nc2ccccc2)C(c2cccc3ccccc23)n2c(nc3ccccc32)N1 (stereo unspecified)
93.1 µM: TGI (MDA-MB-231 breast)
95.1 µM: TGI (RXF 393 renal)
82 µM: TGI (MALME-3M melanoma)
96.1 µM: TGI (NCI-H226 lung)
inactive: GI50 (786-0 renal) 25.1 µM | GI50 (A498 renal) > 100 µM | GI50 (A549 NSCLC) 4.44 µM | GI50 (ACHN renal) 19.3 µM | GI50 (BT-549 breast) 13.1 µM | GI50 (CAKI-1 renal) > 100 µM | GI50 (CCRF-CEM leukemia) > 100 µM | GI50 (COLO 205 colon) > 100 µM | GI50 (DU-145 prostate) 47.3 µM | GI50 (EKVX NSCLC) 73.7 µM | GI50 (HCC-2998 colon) > 100 µM | GI50 (HCT-116 colon) 6.62 µM | GI50 (HCT-15 colon) > 100 µM | GI50 (HL-60(TB) leukemia) > 100 µM | GI50 (HOP-62 NSCLC) 20.2 µM | GI50 (HOP-92 NSCLC) 16.7 µM | GI50 (HS 578T breast) 2.9 µM | GI50 (HT29 colon) > 100 µM | GI50 (IGROV1 ovarian) 89.2 µM | GI50 (K-562 leukemia) > 100 µM | GI50 (KM12 colon) > 100 µM | GI50 (LOX IMVI melanoma) 11 µM | GI50 (M14 melanoma) > 100 µM | GI50 (MALME-3M melanoma) 16.5 µM | GI50 (MCF7 breast) > 100 µM | GI50 (MDA-MB-231 breast) 10.1 µM | GI50 (MDA-MB-435) > 100 µM | GI50 (MDA-MB-468 breast) 26.6 µM | GI50 (MOLT-4 leukemia) > 100 µM | GI50 (NCI-H226 lung) 16.4 µM | GI50 (NCI-H23 lung) > 100 µM | GI50 (NCI-H460 lung) > 100 µM | GI50 (NCI-H522 lung) > 100 µM | GI50 (OVCAR-3 ovarian) > 100 µM | GI50 (OVCAR-4 ovarian) 5.93 µM | GI50 (OVCAR-5 ovarian) > 100 µM | GI50 (OVCAR-8 ovarian) 14.5 µM | GI50 (PC-3 prostate) 23.1 µM | GI50 (RPMI-8226 leukemia) > 100 µM | GI50 (RXF 393 renal) 15.4 µM | GI50 (SF-268 CNS) 30.4 µM | GI50 (SF-295 CNS) 60.4 µM | GI50 (SF-539 CNS) 15.2 µM | GI50 (SK-MEL-2 melanoma) 83.3 µM | GI50 (SK-MEL-28 melanoma) > 100 µM | GI50 (SK-MEL-5 melanoma) > 100 µM | GI50 (SK-OV-3 ovarian) > 100 µM | GI50 (SN12C renal) 9.91 µM | GI50 (SNB-19 CNS) 9.08 µM | GI50 (SNB-75 CNS) 1.76 µM | GI50 (SR leukemia) > 100 µM | GI50 (SW-620 colon) > 100 µM | GI50 (T-47D breast) > 100 µM | GI50 (TK-10 renal) > 100 µM | GI50 (U251 CNS) 11.1 µM | GI50 (UACC-257 melanoma) > 100 µM | GI50 (UACC-62 melanoma) > 100 µM | GI50 (UO-31 renal) > 100 µM
76.9 µM: TGI (SNB-19 CNS)
5.95 µM: TGI (SNB-75 CNS)
56.9 µM: TGI (HOP-62 NSCLC)
> 100 µM: TGI (786-0 renal) | TGI (A498 renal) | TGI (A549 NSCLC) | TGI (ACHN renal) | TGI (BT-549 breast) | TGI (CAKI-1 renal) | TGI (CCRF-CEM leukemia) | TGI (COLO 205 colon) | TGI (DU-145 prostate) | TGI (EKVX NSCLC) | TGI (HCC-2998 colon) | TGI (HCT-116 colon) | TGI (HCT-15 colon) | TGI (HL-60(TB) leukemia) | TGI (HOP-92 NSCLC) | TGI (HT29 colon) | TGI (IGROV1 ovarian) | TGI (K-562 leukemia) | TGI (KM12 colon) | TGI (LOX IMVI melanoma) | TGI (M14 melanoma) | TGI (MCF7 breast) | TGI (MDA-MB-435) | TGI (MDA-MB-468 breast) | TGI (MOLT-4 leukemia) | TGI (NCI-H23 lung) | TGI (NCI-H460 lung) | TGI (NCI-H522 lung) | TGI (OVCAR-3 ovarian) | TGI (OVCAR-4 ovarian) | TGI (OVCAR-5 ovarian) | TGI (OVCAR-8 ovarian) | TGI (PC-3 prostate) | TGI (RPMI-8226 leukemia) | TGI (SF-268 CNS) | TGI (SF-295 CNS) | TGI (SF-539 CNS) | TGI (SK-MEL-2 melanoma) | TGI (SK-MEL-28 melanoma) | TGI (SK-MEL-5 melanoma) | TGI (SK-OV-3 ovarian) | TGI (SN12C renal) | TGI (SR leukemia) | TGI (SW-620 colon) | TGI (T-47D breast) | TGI (TK-10 renal) | TGI (U251 CNS) | TGI (UACC-257 melanoma) | TGI (UACC-62 melanoma) | TGI (UO-31 renal)
20.1 µM: TGI (HS 578T breast)
